Assay results taken from ChEMBL document CHEMBL4364244, “New insights into the biological activities of Chrysanthemum morifolium: Natural flavonoids alleviate diabetes by targeting α-glucosidase and the PTP-1B signaling pathway” (Eur J Med Chem, 2019).
The source made the active and inactive calls. The calls are words filed in the database; no cut-off is given here.

Key:
HepG2 [1] = experiment: Increase in glucose consumption in human HepG2 cells assessed as glucose concentration in the medium treated at 0.4 to 10 uM after incubating cells in the medium containing glucose measured after 24 hrs by glucose oxidase method; format: functional, cell-based
Cricetulus griseus [2] = species: Cricetulus griseus; experiment: Inhibition of PTP1B in CHOK1 cells assessed as increase in phosphorylation of AKT at Ser473 residue at 20 uM measured after 48 hrs by Western blot analysis; format: cell-based
Cricetulus griseus [3] = species: Cricetulus griseus; experiment: Inhibition of PTP1B in CHOK1 cells assessed as increase in phosphorylation of GSK-3beta at Ser9 residue at 20 uM measured after 48 hrs by Western blot analysis; format: cell-based
[4] = molecular target: T1, Tyrosine-protein phosphatase non-receptor type 1 (Homo sapiens) (UniProt P18031); experiment: Inhibition of human recombinant full length PTP1B expressed in Escherichia coli cells at 1 uM using pNPP as substrate preincubated with enzyme for 5 mins followed by incubation with substrate for 10 mins by spectrophotometry analysis relative to control
T1 sequence (whole entry): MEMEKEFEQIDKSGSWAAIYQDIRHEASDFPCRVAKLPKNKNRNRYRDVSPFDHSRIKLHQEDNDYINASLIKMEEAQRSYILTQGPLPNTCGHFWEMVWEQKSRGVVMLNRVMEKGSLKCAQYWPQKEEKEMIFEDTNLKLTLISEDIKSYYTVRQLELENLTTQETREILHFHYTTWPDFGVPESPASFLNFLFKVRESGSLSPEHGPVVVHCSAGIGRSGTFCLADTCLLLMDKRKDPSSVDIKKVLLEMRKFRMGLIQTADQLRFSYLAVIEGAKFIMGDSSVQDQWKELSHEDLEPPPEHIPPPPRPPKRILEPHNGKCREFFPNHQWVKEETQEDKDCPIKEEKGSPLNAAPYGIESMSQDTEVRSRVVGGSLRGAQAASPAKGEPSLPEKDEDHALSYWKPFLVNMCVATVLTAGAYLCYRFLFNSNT

[5] = molecular target: T1, Tyrosine-protein phosphatase non-receptor type 1 (Homo sapiens); experiment: Inhibition of human recombinant full length PTP1B expressed in Escherichia coli cells at 5 uM using pNPP as substrate preincubated with enzyme for 5 mins followed by incubation with substrate for 10 mins by spectrophotometry analysis relative to control
[6] = molecular target: T1, Tyrosine-protein phosphatase non-receptor type 1 (Homo sapiens); experiment: Inhibition of human recombinant full length PTP1B expressed in Escherichia coli cells at 10 uM using pNPP as substrate preincubated with enzyme for 5 mins followed by incubation with substrate for 10 mins by spectrophotometry analysis relative to control
INS1 [7] = experiment: Increase in insulin secretion in high glucose-treated rat INS-1 cells preincubated with compound and 40 mM glucose for 48 hrs followed by stimulation with KRB buffer containing 5 to 30 mM glucose for 60 mins and measured by ELISA; format: functional, cell-based
[8] = Inhibition of baker's yeast alpha-glucosidase using p-nitrophenyl alpha-D-glucopyranoside as substrate measured after 30 mins by spectrophotometry analysis; parameters: species or system Saccharomyces cerevisiae
CHO-K1 = experiment: Decrease in PTP1B protein expression in CHOK1 cells at 20 uM measured after 48 hrs by Western blot analysis; format: functional, cell-based; conditions: Cricetulus griseus
HepG2 [9] = experiment: Increase in glucose consumption in human HepG2 cells assessed as glucose concentration in the medium treated at 500 uM after incubating cells in the medium containing glucose measured after 24 hrs by glucose oxidase method; format: functional, cell-based
INS1 [10] = experiment: Increase in insulin secretion in high glucose-treated rat INS-1 cells at 0.15 uM preincubated with compound and 40 mM glucose for 48 hrs followed by stimulation with KRB buffer containing 5 to 30 mM glucose for 60 mins and measured by ELISA; format: functional, cell-based
Mus musculus [11] = experiment: Antihyperlipidemic activity in STZ-induced type-2 diabetes Kunming mouse model assessed as serum total cholesterol level at 50 mg/kg, po for 4 weeks (reference value: 9.75 +/-0.11 mM); format: functional
Mus musculus [12] = experiment: Antihyperlipidemic activity in STZ-induced type-2 diabetes Kunming mouse model assessed as serum triglyceride level at 50 mg/kg, po for 4 weeks (reference value: 3.08 +/- 0.84 mM); format: functional
Mus musculus [13] = experiment: Antidiabetic activity in STZ-induced type-2 diabetes Kunming mouse model assessed as decrease in fasting blood glucose level at 50 to 100 mg/kg, po administered for 4 weeks by glucometric analysis; format: functional, organism-based
Mus musculus [14] = experiment: Antidiabetic activity in STZ-induced type-2 diabetes Kunming mouse model assessed as decrease in blood glucose AUC at 50 to 100 mg/kg, po administered for 4 weeks by glucometric analysis; format: functional, organism-based
Mus musculus [15] = experiment: Antidiabetic activity in STZ-induced type-2 diabetes Kunming mouse model assessed as increase in glucose tolerance at 50 to 100 mg/kg, po for 13 days followed by overnight fasting and later orally treated with glucose for 60 mins and measured after 120 mins by OGTT; format: functional, organism-based
Mus musculus [16] = experiment: Antihyperlipidemic activity in STZ-induced type-2 diabetes Kunming mouse model assessed as decrease in serum total cholesterol level at 100 mg/kg, po for 4 weeks relative to diabetic control; format: functional; conditions: 672 h
Mus musculus [17] = experiment: Antihyperlipidemic activity in STZ-induced type-2 diabetes Kunming mouse model assessed as decrease in serum total cholesterol level at 50 mg/kg, po for 4 weeks relative to diabetic control; format: functional; conditions: 672 h
Mus musculus [18] = experiment: Antihyperlipidemic activity in STZ-induced type-2 diabetes Kunming mouse model assessed as serum total cholesterol level at 100 mg/kg, po for 4 weeks (reference value: 9.75 +/-0.11 mM); format: functional
Mus musculus [19] = experiment: Antihyperlipidemic activity in STZ-induced type-2 diabetes Kunming mouse model assessed as serum triglyceride level at 100 mg/kg, po for 4 weeks (reference value: 3.08 +/- 0.84 mM); format: functional
Mus musculus [20] = experiment: Antidiabetic activity in STZ-induced type-2 diabetes Kunming mouse model assessed as decrease in postprandial glucose level at 50 mg/kg, po for 2 hrs by glucometer analysis; format: functional, organism-based
Mus musculus [21] = experiment: Antihyperlipidemic activity in STZ-induced type-2 diabetes Kunming mouse model assessed as decrease in serum triglyceride level at 50 mg/kg, po for 4 weeks relative to diabetic control; format: functional; conditions: 672 h
Mus musculus [22] = experiment: Antihyperlipidemic activity in STZ-induced type-2 diabetes Kunming mouse model assessed as decrease in serum triglyceride level at 100 mg/kg, po for 4 weeks relative to diabetic control; format: functional; conditions: 672 h
Mus musculus [23] = experiment: Antidiabetic activity in STZ-induced type-2 diabetes Kunming mouse model assessed as decrease in blood glucose AUC at 50 mg/kg, po for 14 days followed by overnight fasting and later orally treated with maltose for 60 mins and measured after 120 mins by OMTT; format: functional
Mus musculus [24] = experiment: Antidiabetic activity in STZ-induced type-2 diabetes Kunming mouse model assessed as decrease in blood glucose AUC at 100 mg/kg, po for 14 days followed by overnight fasting and later orally treated with maltose for 60 mins and measured after 120 mins by OMTT; format: functional

| Structure (SMILES) | Activity (HepG2 [1]) | Activity (Cricetulus griseus [2]) | Activity (Cricetulus griseus [3]) | inhibition [4] [%] | inhibition [5] [%] | inhibition [6] [%] | IC50 [8] [µM] | inhibition (CHO-K1) | Activity (Mus musculus [11]) [mM] | Activity (Mus musculus [12]) [mM] | further results |
| --- | --- | --- | --- | --- | --- | --- | --- | --- | --- | --- | --- |
| COc1ccc(-c2cc(=O)c3c(O)cc(O[C@@H]4O[C@H](CO)[C@@H](O)[C@H](O)[C@H]4O)cc3o2)cc1O | Active | Active | Active | 27.7 | 23.4 | 29.8 | > 100 | Active | – | – | Activity (INS1 [7]): Dose-dependent effect |
| CN(C)C(=N)NC(=N)N | – | – | – | – | – | – | – | – | – | – | Activity (HepG2 [9]): Active |
| COc1ccc(-c2cc(=O)c3c(O)cc(O)cc3o2)cc1O | Active | Active | Active | 22.8 | 27.1 | 28.3 | – | Active | – | – | – |
| COc1ccc(Cl)cc1C(=O)NCCc1ccc(S(=O)(=O)NC(=O)NC2CCCCC2)cc1 | – | – | – | – | – | – | – | – | – | – | Activity (INS1 [10]): Active |
| COc1ccc(-c2cc(=O)c3c(O)cc(O)cc3o2)cc1 [ACACETIN] | Active | Active | Active | 38.2 | 36.3 | 32 | > 100 | Active | – | – | – |
| C[C@H]1O[C@H](O[C@H]2[C@H](O)[C@@H](O)[C@@H](O[C@H]3[C@H](O)[C@@H](O)C(O)O[C@@H]3CO)O[C@@H]2CO)[C@H](O)[C@@H](O)[C@@H]1N[C@H]1C=C(CO)[C@@H](O)[C@H](O)[C@H]1O (some centres not stated) [ACARBOSE] | – | – | – | – | – | – | 236 | – | 9.61 | 3.02 | – |
| O=c1cc(-c2ccc(O)cc2)oc2cc(O)cc(O)c12 [APIGENIN] | Active | Active | Active | 29.8 | 20.2 | 39.2 | 9.04 | Active | 7.6 | 3.13 | inhibition (Mus musculus [13]): Active; inhibition (Mus musculus [14]): Active; Activity (Mus musculus [15]): Active; inhibition in vivo at 100 mg/kg (Mus musculus [16]): 15.7%; inhibition in vivo at 50 mg/kg (Mus musculus [17]): 22.1%; Activity (Mus musculus [18]): 8.22 mM; Activity (Mus musculus [19]): 3.06 mM; inhibition (Mus musculus [20]): Active |
| COc1ccc(-c2cc(=O)c3c(O)cc(O[C@@H]4O[C@H](CO[C@@H]5O[C@@H](C)[C@H](O)[C@@H](O)[C@H]5O)[C@@H](O)[C@H](O)[C@H]4O)cc3o2)cc1O [DIOSMIN] | Active | Active | Active | 36.3 | 32.8 | 30.5 | > 100 | Active | 9.18 | 2.04 | Activity (INS1 [7]): Dose-dependent effect; inhibition (Mus musculus [13]): Active; inhibition (Mus musculus [14]): Active; Activity (Mus musculus [15]): Active; inhibition in vivo at 100 mg/kg (Mus musculus [16]): 8.3%; inhibition in vivo at 50 mg/kg (Mus musculus [21]): 33.8%; inhibition in vivo at 100 mg/kg (Mus musculus [22]): 27.3%; Activity (Mus musculus [18]): 8.94 mM; Activity (Mus musculus [19]): 2.24 mM; inhibition in vivo at 50 mg/kg (Mus musculus [23]): 11.2%; inhibition in vivo at 100 mg/kg (Mus musculus [24]): 13.5%; inhibition (Mus musculus [20]): Active |
| O=c1cc(-c2ccc(O)c(O)c2)oc2cc(O)cc(O)c12 [LUTEOLIN] | Active | Active | Active | 19.8 | 40.8 | 39.9 | 16.6 | Active | – | – | – |
